In publication doi:10.1101/2023.08.21.552681v1 (biorxiv, 2023):

target: T1, ctdWDR91 (Homo sapiens, UniProt A4D1P6); experiment: biochemical
T1 sequence (A4D1P6 392-747): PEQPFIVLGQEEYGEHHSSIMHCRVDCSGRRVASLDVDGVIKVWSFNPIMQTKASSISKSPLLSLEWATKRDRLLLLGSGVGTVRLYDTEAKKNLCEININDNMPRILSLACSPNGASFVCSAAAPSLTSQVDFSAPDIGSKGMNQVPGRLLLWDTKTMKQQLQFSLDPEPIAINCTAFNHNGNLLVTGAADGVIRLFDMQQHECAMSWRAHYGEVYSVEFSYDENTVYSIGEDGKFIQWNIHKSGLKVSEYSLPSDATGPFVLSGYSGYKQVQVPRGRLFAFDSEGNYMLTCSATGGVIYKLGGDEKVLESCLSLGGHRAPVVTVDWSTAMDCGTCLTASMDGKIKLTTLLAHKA

Row | Kd [µM] | Structure (SMILES)
1 | > 45 | Fc1ccc(N2CCC(CNc3ncnc4ccncc34)C2)cc1F (stereo not drawn) [MRGG044795a]
2 | > 45 | NC(=O)[C@]12CCOC[C@H]1CN(C(=O)c1cccc(N3CCCC3)c1)C2 [MRGG044792a]
3 | > 45 | CC(NC(=O)C1Cc2ccccc2O1)c1cccc(N2CCCC2)c1 (stereo not drawn) [MRGG044823a]
4 | > 45 | CCOc1ccc2c(c1)C(NC(=O)c1cn3ccnc3s1)CCO2 (stereo not drawn) [MRGG044834a]
5 | > 45 | Cc1cc(O)c(O)cc1C(=O)NC1(c2cccc(C#N)c2)CCC1 [MRGG045322a]
6 | > 45 | Cc1ccc(N)cc1C(=O)N1C2C=C(c3ccccc3)CC1CC2 (stereo not drawn) [MRGG044818aAD]
7 | > 45 | CC(C)(C)OC(=O)NCc1ccc(C(=O)NC2CCN(c3ccc(Cl)cc3)C2)cc1 (stereo not drawn) [MRGG045288a]
8 | > 45 | NC(=O)C1=NOC(CNC(=O)NCC2CCN(c3ccccc3)C2)C1 (stereo not drawn) [MRGG044840a]
9 | > 45 | O=C(NC1CCc2ccccc21)c1ccc(Cl)cc1 (stereo not drawn) [MRGG044788a]
10 | > 45 | CN(Cc1ccc(-c2ccc(Cl)cc2)o1)C(=O)CN1C(=O)c2cccnc2C1=O [MRGG045274a]
11 | > 45 | CN(C)c1nc2ccc(NCc3cc4c(cc3O)OCO4)cc2o1 [MRGG044799a]
12 | > 45 | COc1cccc([C@@H]2[C@@H](NC3CCN(C4CC4)C3)CCN2C2CC2)c1 (stereo partly drawn) [MRGG045319a]
13 | > 45 | CCC(NC(=O)c1ccc(S(=O)(=O)NC2CC2)cc1)c1ccc(Br)cc1 (stereo not drawn) [MRGG044824a]
14 | > 45 | CN1C[C@@H]2CN(C(=O)c3cc(Br)c([N+](=O)[O-])[nH]3)C[C@@H]2C1 [MRGG045266a]
15 | > 45 | CN(C)C(=O)CC1CCN(C(=O)c2cc3cc(O)c(O)cc3s2)CC1 [MRGG045286a]
16 | > 45 | Cc1cc(NCC2CCN(C3CC3)C2)nc(-c2cccc([N+](=O)[O-])c2)n1 (stereo not drawn) [MRGG044829a]
17 | > 45 | CC1CC(NCC2CCCCCC2)CN1C1CC1 (stereo not drawn) [MRGG045339a]
18 | > 45 | N#Cc1ccc(NCc2cc(Cl)cc(C(F)(F)F)c2)cn1 [MRGG044806a]
19 | > 45 | N#Cc1cccc(CN(C=O)C2CC3(CCCC3)Oc3ccccc32)c1 (stereo not drawn) [MRGG045284a]
20 | > 45 | O=C(NC1CC2(CCCC2)Oc2ccccc21)c1cnc2ccccn2c1=O (stereo not drawn) [MRGG044783a]
21 | > 45 | O=C(c1snc(O)c1Cl)N1CCC2(CCc3ccccc3O2)C1 (stereo not drawn) [MRGG044808a]
22 | > 45 | CC1CN(C2CC2)CC1NC(=O)c1cc2cc(Br)ccc2o1 (stereo not drawn) [MRGG044827a]
23 | > 45 | O=c1[nH]nc2n1CCN(Cc1ccccc1CN1CCn3c(n[nH]c3=O)C1)C2 [MRGG045331a]
24 | > 45 | CC(NC(=O)CCNC(=O)c1ccc(Br)cc1)c1ccc(Cl)cc1 (stereo not drawn) [XSGG051538e]
25 | 36 | CC(NC(=O)c1ccc2c(c1)NC(=O)CO2)c1cccc(Cl)c1 (stereo not drawn) [MRGG044791a]
26 | > 45 | O=C(NC(CO)C(O)c1ccc(Cl)cc1)c1ccc2ccncc2c1 (stereo not drawn) [MRGG045273a]
27 | > 45 | C[C@@H]1CN(S(=O)(=O)c2ccc3ncsc3c2)[C@@H](C)CN1C [MRGG045304a]

Row | Kd [µM] | Structure (SMILES)
28 | > 45 | C[C@H](NC1CCN(C2CC2)C1)c1cccc2cnccc12 (stereo partly drawn) [MRGG045313a]
29 | > 45 | CN(Cc1ccc(Cl)c(Cl)c1)C(=O)COC(=O)C=Cc1ccc(O)c(O)c1 [MRGG045262a]
30 | > 45 | O=C(NCc1ccc2nonc2c1)c1cn2ccsc2n1 [MRGG044782a]
31 | > 45 | CCC(NC(=O)CN1CCn2cncc2C1)c1ccc(Cl)cc1 (stereo not drawn) [MRGG044822a]
32 | > 45 | Cc1cc(OCc2ccccc2)nc(N(C)C2CCN(C3CC3)C2)n1 (stereo not drawn) [MRGG045325a]
33 | > 45 | Cc1ccc(C(=O)NC2CC2)cc1NCc1cc(C#N)cc(C#N)c1 [MRGG045299a]
34 | > 45 | CN1CC(N(C)C(=O)CCc2ccc3cc(O)c(O)cc3c2)C1 [MRGG045336a]
35 | > 45 | C[C@H]1C(=O)N(CCN2CCc3ccccc32)C(=O)N1C [MRGG045307a]
36 | > 45 | Cc1c(C#N)c2ccccc2n1CC(=O)N1CCc2ccccc2C1 [MRGG044779a]
37 | > 45 | O=C(NC1(c2ccc(F)cc2)COC1)c1ccc2cnccc2c1 [MRGG045267a]
38 | > 45 | N#Cc1cc(CNc2ccccc2CN2CCNC2=O)ccc1F [MRGG044804a]
39 | > 45 | Cc1ccccc1N1CCC(CNC(=O)Cc2ccc(C(F)(F)F)cc2)C1 (stereo not drawn) [MRGG044786a]
40 | > 45 | CCN(CC(=O)NCc1cc(Cl)c(Cl)cc1Cl)C1CC1 [MRGG045269a]
41 | > 45 | COc1cccc(N2CCC(CNC(=O)c3cccc(F)c3)C2)c1 (stereo not drawn) [MRGG044811a]
42 | > 45 | COc1ccc(C(NC(=O)CN2CCn3ncnc3C2)c2ccc(OC)cc2)cc1 [MRGG044794a]
43 | > 45 | CN1CC(N(C)C(=O)c2cc(-n3cccc3)ccn2)C1 [MRGG045326a]
44 | > 45 | O=C1CC(c2nccs2)NC(=O)N1CC1CCN(c2ccc(Cl)cc2)C1 (stereo not drawn) [MRGG045332a]
45 | > 45 | CC(NC(=O)CN(C)Cc1ccc(Cl)c(Cl)c1)c1ccccc1 (stereo not drawn) [MRGG044839a]
46 | > 45 | COc1ccnc(N(C)C(=O)CCn2cccc2)n1 [MRGG045324a]
47 | > 45 | O=C(CCN1C[C@@H]2C[C@H]1CN2C1CC1)NCc1ccccc1Cl [MRGG045281a]
48 | > 45 | N#Cc1cn(CC2CCN(c3ccccc3)C2)c(=O)[nH]c1=O (stereo not drawn) [MRGG044810a]
49 | > 45 | CC(C)(C)OC(=O)N1C[C@@H](Cc2ccccc2)[C@H](O)C1 [MRGG044809a]
50 | > 45 | CC(C)(C)OC(=O)N1CCCC1C1CCN(C2CC2)C1 (stereo not drawn) [MRGG045334a]
51 | > 45 | N#Cc1cccc(CNC(=O)C2=NN(c3ccccc3)C(=O)CN2)c1 [MRGG044820a]
52 | > 45 | N#Cc1ccc2c(c1)CCCCC2NCC1CCN(C2CC2)C1 (stereo not drawn) [MRGG045300a]
53 | > 45 | N#Cc1cc(C#N)cc(CNc2cccc(CN3CCCC3=O)c2)c1 [MRGG045333a]

Row | Structure (SMILES) | Kd [µM]
54 | O=[N+]([O-])c1ccc(N2CCC(CNc3ccccn3)C2)c2ccncc12 (stereo not drawn) [MRGG044831a] | > 45
55 | Cc1[nH]c2ccccc2c1CC(=O)N(C)C1CCN(C2CC2)C1 (stereo not drawn) [MRGG045290a] | > 45

target: T1, ctdWDR91; experiment: biochemical; remark: another data set of the same source

Row | Kd [µM] | Structure (SMILES)
56 | 22 | NC(=O)C1CCCN(c2ccc(C(=O)NC(CCO)c3ccc(Cl)cc3)cc2)C1 (stereo not drawn) [DRGG001997a]
57 | > 45 | O=C(NC1(c2ccc(Cl)cc2)COC1)c1ccc(N2CCCC2)cc1 [DRGG001988a]
58 | > 20 | O=C(NC1(c2ccc(Cl)cc2)CC1)c1ccc(N2CCC(O)C2)cc1 (stereo not drawn) [DRGG001980a]
59 | > 45 | O=C(NC1CC2(CCC2)Oc2ccccc21)c1ccc(N2CCC(O)C2)cc1 (stereo not drawn) [DRGG001975a]
60 | > 45 | O=C(CNC(=O)c1ccc(F)cc1)NC1CCN(c2ccc(Cl)cc2)C1 (stereo not drawn) [DRGG001962a]
61 | > 45 | O=C(NCC1CCN(c2ccc(Cl)cc2)C1)N1CC(O)(c2ccc(F)cc2)C1 (stereo not drawn) [DRGG002007a]
62 | > 45 | O=C(NCC1CCN(Cc2ccccc2)C1)c1ccc(N2CCC(O)C2)cc1 (stereo not drawn) [DRGG001968a]
63 | > 45 | CC1CCN(c2ccc(C(=O)NC3(Cc4ccc(F)cc4)CC3)cc2)C1 (stereo not drawn) [DRGG002014a]
64 | > 45 | O=C(NC1(c2ccc(Cl)cc2)COC1)c1cccc(N2CCCC2)c1 [DRGG001982a]
65 | > 45 | O=C(NC1CC1)c1ccc(C(=O)NC2CCN(c3ccc(Cl)cc3)C2)cc1 (stereo not drawn) [DRGG002012a]
66 | > 45 | O=C(c1ccc(N2CCC(O)C2)cc1)N1Cc2ccc(Cl)cc2C1 (stereo not drawn) [DRGG001955a]
67 | > 45 | O=C(NCC1CCN(c2ccc(Cl)cc2)C1)c1cccc(C2(O)COC2)c1 (stereo not drawn) [DRGG001996a]
68 | > 45 | O=C(N[C@@H]1CCO[C@H]1c1ccc(Cl)cc1)c1ccc(N2CCC(O)C2)cc1 (stereo partly drawn) [DRGG002001a]
69 | > 45 | O=C(NC1CCN(c2ccc(F)cc2)C1)c1ccc(Cl)cc1 (stereo not drawn) [DRGG001976a]
70 | > 45 | O=C(Nc1cccc2c1CN(C1CC1)C2)c1ccc(N2CCC(O)C2)cc1 (stereo not drawn) [DRGG001985a]
71 | > 45 | O=C(NCC1CCN(c2ccc(F)cc2)C1)NC1(c2ccc(Cl)cc2)CC1 (stereo not drawn) [DRGG002015a]

Row | Kd [µM] | Structure (SMILES)
72 | > 45 | O=C(NCC1CCN(c2ccc(Cl)cc2)C1)NC1(c2ccc(F)cc2)CC1 (stereo not drawn) [DRGG002005a]
73 | > 45 | O=C(NC1(c2ccc(Cl)cc2)COC1)c1cncc2cnccc12 [DRGG001948a]
74 | > 45 | O=C(NCC1CCN(c2ccc(Cl)cc2)C1)c1ccc(C2CCCOC2)cc1 (stereo not drawn) [DRGG001987a]
75 | > 45 | C[C@@H](NC(=O)c1ccc(N2CCC(O)C2)cc1)c1ccc2c(c1)CCCC2 (stereo partly drawn) [DRGG001990a]
76 | 12 | O=C(NCc1ccc2nsnc2c1)c1ccc(N2CCC(O)C2)cc1 (stereo not drawn) [DRGG002011a]
77 | > 45 | O=C(NCC1CCN(c2ccc(F)cc2)C1)c1ccc(N2CCC(O)C2)cc1 (stereo not drawn) [DRGG001938a]
78 | > 45 | O=C(NCC1CCN(c2ccc(Cl)cc2)C1)c1ccc(OC2CCOC2)cc1 (stereo not drawn) [DRGG001945a]
79 | > 45 | O=C(NCC1CCN(c2ccc(F)cc2)C1)c1ccc(Cl)cc1 (stereo not drawn) [DRGG001960a]
80 | > 45 | Cc1ccc(N2CCC(NC(=O)c3ccc(Cl)cc3)C2)cc1 (stereo not drawn) [DRGG001953a]
81 | > 45 | CC1CCN(c2ccc(C(=O)NCC3(c4ccc(F)cc4)CC3)cc2)C1 (stereo not drawn) [DRGG001965a]
82 | > 45 | O=C(NCC1CCN(c2ccc(Cl)cc2)C1)c1ccc(C2(O)COC2)cc1 (stereo not drawn) [DRGG001959a]
83 | > 45 | O=C(NCC1CCN(c2ccc(F)cc2)C1)N1CC(O)(c2ccc(Cl)cc2)C1 (stereo not drawn) [DRGG002002a]
84 | > 45 | O=C(N[C@@H]1CCN(C2CC2)[C@H]1c1ccccc1)c1ccc(N2CCC(O)C2)cc1 (stereo partly drawn) [DRGG001958a]
85 | > 45 | CC1(c2ccc(C(=O)NC3CCN(c4ccc(F)cc4)C3)cc2)CC1 (stereo not drawn) [DRGG001994a]
86 | > 45 | O=C(NCC1CCN(c2ccc(Cl)cc2)C1)c1ccc(F)cc1 (stereo not drawn) [DRGG001950a]
87 | > 45 | O=C(NCC1CCN(c2ccc(F)cc2)C1)NCC1(c2ccc(Cl)cc2)CC1 (stereo not drawn) [DRGG002008a]
